Eleven molecules from ChEMBL document CHEMBL1201862, “PubChem BioAssay data set” (2004) can be followed below.

Some test systems named below: CCRF-CEM; NCI-H522; SNB-19; SN12C; UACC-257; OVCAR-5; K562; PC-3; CAKI-1; SW-620; BT-549; COLO 205; OVCAR-4; SF-295; DU-145; HT-29; RPMI-8226; LOX IMVI; Hs-578T; SR.
Common to all, as to test: DTP human tumour cell line panel, 48 h

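Cells were grown in 96-well plates and exposed to each compound for 48 hours at five concentrations; endpoints were interpolated linearly between bracketing concentrations, or set to the highest concentration if not reached. GI50 = concentration required for 50% inhibition of growth.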 Active and inactive are the calls of the source. Rule as the data show it: active = GI50 up to about 1.1 µM and inactive = higher.

By GI50 is commonly meant the concentration that inhibits growth by half.

For the molecule `C=C1[C@H]2O[C@H]2[C@@H](OC(C)=O)[C@@]2(C)[C@@H](OC(C)=O)C[C@@H](OC(=O)CCC)[C@@](C)(O)[C@@H]2[C@@H](OC(C)=O)[C@]2(O)[C@@H](C)C(=O)O[C@H]2[C@H]1Cl`, the GI50 in the assay on CCRF-CEM was > 10 µM (inactive); in the assay on NCI-H522 it was > 100 µM (inactive); in the assay on SNB-19, > 100 µM (inactive); in the assay on SN12C, > 100 µM (inactive); with UACC-257, > 100 µM (inactive); in the assay with OVCAR-5, > 100 µM (inactive). The GI50 with K562, in the assay with PC-3, in the assay on CAKI-1, in the assay with SW-620, in the assay on BT-549 and in the assay with COLO 205 was > 100 µM (inactive) throughout. In addition, the GI50 in the assay with OVCAR-4, with SF-295, with DU-145, in the assay with HT-29 and in the assay on RPMI-8226 was > 100 µM (inactive) throughout.
As to `O=c1[nH]c2ccccc2c(=O)c2cc3ccccc3cc12`, the GI50 in the assay on CCRF-CEM was 51.5 µM (inactive); in the assay with NCI-H522 it was 10.6 µM (inactive); in the assay on LOX IMVI, 27.9 µM (inactive); in the assay with SNB-19, 12.1 µM (inactive); with SN12C, 71.4 µM (inactive); with UACC-257, > 100 µM (inactive). Besides, the GI50 in the assay on OVCAR-5 is > 100 µM (inactive); with K562, > 100 µM (inactive); with PC-3, > 100 µM (inactive); with CAKI-1, 16.2 µM (inactive); in the assay on SW-620 it was 65.5 µM (inactive); in the assay with BT-549 it was 15.7 µM (inactive). Also, the GI50 with COLO 205 is 88.7 µM (inactive); with OVCAR-4, 23.4 µM (inactive); with SF-295, 18.6 µM (inactive); in the assay on Hs-578T, 8.81 µM (inactive); in the assay on DU-145, 26.9 µM (inactive); with HT-29, > 100 µM (inactive).
As for `Cc1ncc(COP(=O)(O)O)c(/C=C2\SC(=S)NC2=O)c1O`, the GI50 in the assay with SR, in the assay with NCI-H522, in the assay on LOX IMVI, with SNB-19, in the assay on SN12C and in the assay on UACC-257 was > 100 µM (inactive) in each case. The GI50 with OVCAR-5 was > 100 µM (inactive); with K562 it was > 85.7 µM (inactive); in the assay on PC-3, > 100 µM (inactive); in the assay with CAKI-1 it was > 100 µM (inactive); with SW-620, > 100 µM (inactive); in the assay on BT-549 it was > 100 µM (inactive). The GI50 in the assay on COLO 205 is > 100 µM (inactive); in the assay on OVCAR-4 it was > 100 µM (inactive); in the assay on SF-295 it was > 22.3 µM (inactive); in the assay on DU-145, > 100 µM (inactive); in the assay with HT-29, > 100 µM (inactive); in the assay on RPMI-8226, > 100 µM (inactive).
With `COC(=O)C(=O)C(C(=O)C(=O)Nc1cccc([N+](=O)[O-])c1)c1nc2ccc(Cl)cc2nc1O` (stereo not given), the GI50 in the assay with CCRF-CEM, in the assay with NCI-H522, with LOX IMVI, in the assay on SNB-19, in the assay with SN12C and in the assay on UACC-257 was > 100 µM (inactive) in each case. Also, the GI50 with OVCAR-5 is > 100 µM (inactive); with PC-3, > 100 µM (inactive); with CAKI-1 it was 95.7 µM (inactive); in the assay with SW-620 it was > 100 µM (inactive); in the assay with BT-549, > 100 µM (inactive); in the assay with COLO 205, > 100 µM (inactive). Besides, the GI50 with OVCAR-4, in the assay on SF-295, in the assay with Hs-578T, with DU-145 and in the assay with HT-29 was > 100 µM (inactive) throughout.
As to `CCNCC(=O)Nc1ccc2c(c1)C(=O)c1ccc(NC(=O)CNCC)cc1C2=O`, the GI50 with CCRF-CEM is 2.9 µM (inactive); in the assay with NCI-H522, 1.87 µM (inactive); in the assay on LOX IMVI, 2.26 µM (inactive); with SNB-19, 2.7 µM (inactive); in the assay with SN12C it was 1.87 µM (inactive); in the assay on UACC-257, 5.98 µM (inactive). In addition, the GI50 was 3.01 µM (inactive) with OVCAR-5; 1.78 µM (inactive) in the assay on K562; 2.76 µM (inactive) with PC-3; 8.77 µM (inactive) in the assay with CAKI-1; 2.99 µM (inactive) with SW-620; 1.71 µM (inactive) with COLO 205. Also, the concentration for 50% growth inhibition (GI50) was 0.514 µM (active) in the assay with OVCAR-4; 3.33 µM (inactive) in the assay with SF-295; 4.02 µM (inactive) with Hs-578T; 2.69 µM (inactive) with DU-145; 2.45 µM (inactive) in the assay on HT-29.
Regarding `O=C1Nc2ccccc2/C1=N/Nc1nc(-c2ccc(Br)cc2)cs1`, the GI50 with CCRF-CEM was 15.7 µM (inactive); in the assay on NCI-H522, 25.9 µM (inactive); in the assay with LOX IMVI, 17.4 µM (inactive); in the assay on SNB-19 it was 18.5 µM (inactive); in the assay on SN12C, 27.1 µM (inactive); with UACC-257, 22.7 µM (inactive). Further, the GI50 in the assay on OVCAR-5 is 23.8 µM (inactive); in the assay on PC-3 it was 28.6 µM (inactive); with CAKI-1 it was 18.6 µM (inactive); in the assay on SW-620, 28.2 µM (inactive); with BT-549, 20 µM (inactive); in the assay on COLO 205 it was 24.9 µM (inactive). The GI50 was 18.5 µM (inactive) with OVCAR-4; 24.1 µM (inactive) in the assay on SF-295; 17.9 µM (inactive) in the assay on Hs-578T; 23.3 µM (inactive) in the assay on DU-145; 17.7 µM (inactive) in the assay on HT-29.
For `CCOC(=O)c1nc2ccccc2nc1Oc1ccc(F)cc1`, the GI50 in the assay on CCRF-CEM, in the assay with LOX IMVI, in the assay on SNB-19, with SN12C, with UACC-257 and in the assay with OVCAR-5 was > 100 µM (inactive) throughout. In addition, the GI50 in the assay on K562 is > 100 µM (inactive); in the assay with PC-3, > 100 µM (inactive); in the assay with SW-620, > 100 µM (inactive); in the assay with BT-549, > 100 µM (inactive); with COLO 205, > 100 µM (inactive); with SF-295, 70.6 µM (inactive). In addition, the GI50 is 39.3 µM (inactive) with Hs-578T, > 100 µM (inactive) in the assay on DU-145, > 100 µM (inactive) in the assay on HT-29 and > 100 µM (inactive) in the assay with RPMI-8226.
On to `c1csc(-c2ccc(-c3cccc4nsnc34)s2)c1`, for which the GI50 with SR was 13 µM (inactive); with CCRF-CEM it was 20.2 µM (inactive); with NCI-H522 it was 71.6 µM (inactive); in the assay on LOX IMVI, > 100 µM (inactive); in the assay with SNB-19 it was > 100 µM (inactive); in the assay on SN12C, > 100 µM (inactive). Besides, the GI50 in the assay with UACC-257 is > 100 µM (inactive); with OVCAR-5, 71.1 µM (inactive); in the assay with K562, 32 µM (inactive); with PC-3 it was > 100 µM (inactive); in the assay with CAKI-1, 35.8 µM (inactive); with SW-620, > 100 µM (inactive). Also, the GI50 in the assay with BT-549 was > 100 µM (inactive); in the assay on COLO 205 it was > 100 µM (inactive); in the assay with OVCAR-4 it was 21.7 µM (inactive); with SF-295 it was 44.8 µM (inactive); in the assay on DU-145, > 100 µM (inactive); in the assay on RPMI-8226, 85.3 µM (inactive).
`O=C(O)CCc1ccc2c(c1)C(=O)CC2`: the GI50 with SR, in the assay with CCRF-CEM, with NCI-H522, with LOX IMVI, with SNB-19 and in the assay on SN12C was > 100 µM (inactive) throughout. The GI50 in the assay with UACC-257, in the assay with OVCAR-5, with K562, in the assay on SW-620, with BT-549 and with COLO 205 was > 100 µM (inactive) in each case. Moreover, the GI50 in the assay on OVCAR-4, in the assay with SF-295, with DU-145, in the assay with HT-29 and in the assay with RPMI-8226 was > 100 µM (inactive) throughout.
In the case of `CN(C)c1ccc(/C=N/CC2CCCN3CCCCC23)cc1` (stereo not given), the GI50 in the assay with NCI-H522, in the assay with LOX IMVI, in the assay with SNB-19, in the assay with UACC-257, with OVCAR-5 and in the assay with PC-3 was > 100 µM (inactive) each time. Further, the GI50 was > 100 µM (inactive) with CAKI-1; > 100 µM (inactive) with BT-549; 42.7 µM (inactive) with COLO 205; > 100 µM (inactive) with SF-295; 24.8 µM (inactive) with Hs-578T; > 100 µM (inactive) in the assay on DU-145.
As to `O=C1OC2(CCCCC2)C(Oc2ccc(Cl)cc2)=C1F`, the GI50 in the assay with SR was 33.5 µM (inactive); with CCRF-CEM it was 29.7 µM (inactive); in the assay with NCI-H522, 12.7 µM (inactive); in the assay with LOX IMVI, 27.9 µM (inactive); with SNB-19, 88.7 µM (inactive); in the assay on SN12C it was 45.2 µM (inactive). In addition, the GI50 in the assay with UACC-257 is 24.3 µM (inactive); with OVCAR-5, 74 µM (inactive); in the assay on K562, 30.6 µM (inactive); in the assay on PC-3, 42.8 µM (inactive); in the assay with CAKI-1, 77.4 µM (inactive); in the assay with SW-620, 23.6 µM (inactive). For the same molecule, the GI50 was 26.5 µM (inactive) in the assay on COLO 205; 45.4 µM (inactive) with SF-295; 50 µM (inactive) with Hs-578T; 92.9 µM (inactive) in the assay with DU-145; 26.8 µM (inactive) with HT-29; 32.7 µM (inactive) in the assay with RPMI-8226.
